The text below walks through data of patent publication US5192758A, “2-biphenyl-carbapenem antibacterial agents” (Merck & Co., Inc., priority 1992, dated 1993).

This series has as its system rat. Briefly: Intracisternal assay: convulsant response (seizure potential). It is filed as in vivo. To be noted: injection of 20 micro-liters into the intracisternal cavity, amount giving a 50% seizure rate. The text has this: Central to the instant invention was the safety benefit realized by the incorporation of the cyano group to the imidazoliummethylbiphenyl moiety of the carbapenem nucleus, as shown in Table II below. […] This difference in activity was statistically significant and allows one to anticipate a much greater CNS safety profile for the compounds depicted.
The figure reported in Table II was the amount of active compound giving a 50% seizure rate in the rat, serving as a model for humans. For each compound, different concentrations were prepared in water and for each concentration, a group of animals were given an injection of 20 micro-liters into the intracisternal cavity. The seizure response of each member of the group was noted by observation.
`CC(O)C1C(=O)N2C(C(=O)[O-])=C(c3cc(C#N)cc(-c4ccc(C[n+]5ccn(CCO)c5)cc4)c3)CC12` (centres unmarked) [R^c = CH2 CH2 OH, R' = CN]: the “CONVULSANT RESPONSE MCG/HEAD-ED50” value was 100 MCG/HEAD.
Then `CC(O)C1C(=O)N2C(C(=O)[O-])=C(c3cc(C#N)cc(-c4ccc(C[n+]5ccn(C)c5)cc4)c3)CC12` (centres unmarked) [R^c = CH3, R' = CN], with 100 MCG/HEAD; and `CC(O)C1C(=O)N2C(C(=O)[O-])=C(c3cc(Br)cc(-c4ccc(C[n+]5ccn(C)c5)cc4)c3)CC12` (centres unmarked) [R^c = CH3, R' = Br], with under 12.5 MCG/HEAD.
Under `CC(O)C1C(=O)N2C(C(=O)[O-])=C(c3cccc(-c4ccc(C[n+]5ccn(C)c5)cc4)c3)CC12` (centres unmarked) [R^c = CH3, R' = H] stands 35 MCG/HEAD.
Then `CC(O)C1C(=O)N2C(C(=O)[O-])=C(c3cccc(-c4ccc(C[n+]5ccn(CCO)c5)cc4)c3)CC12` (centres unmarked) [R^c = CH2 CH2 OH, R' = H], with 35 MCG/HEAD.
